From PubChem BioAssay (NCI)
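Assay format: 96-well plates, 48-hour exposure. The concentration for full growth arrest is given as TGI.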 Where a SMILES comes first, the peptide text is derived from it. The star is where a group is joined. Boc = CC(C)(C)OC(=O)*; OBn = c1ccc(CO*)cc1

How the values were obtained:
Test in all cases: DTP human tumour cell line panel, 48 h
[1] = system: EKVX NSCLC
[2] = system: HOP-62 NSCLC
[3] = system: M14 melanoma
[4] = system: MCF7 breast
[5] = system: MDA-MB-231 breast
[6] = system: NCI-H23 lung
[7] = system: OVCAR-3 ovarian
[8] = system: SK-OV-3 ovarian
[9] = system: T-47D breast
[10] = system: TK-10 renal

SMILES | TGI [1] | TGI [2] | TGI [3] | TGI [4] | TGI [5] | TGI [6] | TGI [7] | TGI [8] | TGI [9] | TGI [10]
Cc1nn(-c2ccccc2)c2nc3ccc(Cl)cc3c(-c3ccccc3)c12 | > 100 µM | > 100 µM | > 100 µM | > 100 µM | > 100 µM | > 100 µM | > 100 µM | > 100 µM | > 100 µM | > 100 µM
CC(C)CC(NC(=O)C(Cc1ccccc1)NC(=O)C(Cc1ccccc1)NC(=O)OC(C)(C)C)C(=O)OCc1ccccc1 (stereo not drawn) (Boc-Phe-Phe-Leu-OBn; configuration not given here) | > 100 µM | > 100 µM | > 100 µM | > 100 µM | > 100 µM | > 100 µM | > 100 µM | > 100 µM | > 100 µM | > 100 µM
COC(=O)C1=COc2c(n(C)c3ccccc23)-c2ccccc21 | > 100 µM | > 100 µM | > 100 µM | > 100 µM | > 100 µM | > 100 µM | > 100 µM | > 100 µM | > 100 µM | > 100 µM
Cc1nc2ccccc2c(=O)n1/N=C/c1ccc(N(C)C)cc1 | > 100 µM | > 100 µM | > 100 µM | > 100 µM | > 100 µM | > 100 µM | > 100 µM | > 100 µM | > 100 µM | > 100 µM
C=CCN1C[C@@H](C)N([C@@H](c2ccc(C(=O)N(CC)CC)cc2)c2cccc(OC)c2)C[C@@H]1C | > 100 µM | > 100 µM | > 100 µM | > 100 µM | > 100 µM | > 100 µM | > 100 µM | > 100 µM | > 100 µM | 
O=C1C2CC=CCC2C(=O)N1n1c(Cc2ccccc2)n[nH]c1=O (stereo not given) | > 100 µM | > 100 µM | > 100 µM | > 100 µM | > 100 µM | > 100 µM | > 100 µM | > 100 µM | > 100 µM | > 100 µM
NC(=O)CNC(=O)[C@@H]1C[C@@H](OCCC(=O)O)CN1C(=O)OCc1ccccc1 | > 100 µM | > 100 µM | > 100 µM | > 100 µM | > 100 µM | > 100 µM | > 100 µM | > 100 µM | > 100 µM | > 100 µM
NC(=O)C1CCCN1C(=O)N(CCCl)N=O (stereo not given) | > 100 µM | > 100 µM | > 100 µM | > 100 µM | > 100 µM | > 100 µM | > 100 µM | > 100 µM | > 100 µM | > 100 µM
Cc1ccc(C)c(COCCOCn2c(=O)[nH]c(=O)c3cc(Br)ccc32)c1 | > 100 µM | > 100 µM | > 100 µM | > 100 µM | > 100 µM | > 100 µM | > 100 µM | > 100 µM | > 100 µM | > 100 µM
CNc1nc2c(C)ccc3[nH]c(N(C)C)nc3c-2n1 | > 100 µM | > 100 µM | 51.1 µM | > 100 µM | > 100 µM | > 100 µM | > 100 µM | > 100 µM | > 100 µM | > 100 µM
Cc1cccc(C(=O)O)c1CC1NCCC2c3ccccc3NC12 (stereo not given) | > 100 µM | > 100 µM | > 100 µM | > 100 µM | > 100 µM | > 100 µM | > 100 µM | > 100 µM | > 100 µM | > 100 µM
O=c1[nH]c(=O)n2n1C1C=CC2CC1 | > 100 µM | > 100 µM | > 100 µM | > 100 µM | > 100 µM | > 100 µM | > 100 µM | > 100 µM | > 100 µM | > 100 µM
COCn1c(C)c(C)c2c(=O)oc(C)nc21 | > 100 µM | > 100 µM | > 100 µM | > 100 µM | > 100 µM | > 100 µM |  | > 100 µM | > 100 µM | > 100 µM
Cc1cc(C)c2c(=O)cc(-c3ccc4ccccc4c3)[nH]c2n1 | > 100 µM | > 93.8 µM | 67.5 µM | > 100 µM | > 100 µM | > 100 µM | > 100 µM | > 100 µM | > 100 µM | > 100 µM
O=c1c2c3c(sc2nc2n1N=C(c1ccc([N+](=O)[O-])cc1)CS2)CCCC3 | > 100 µM | > 100 µM |  | > 100 µM | > 100 µM | > 100 µM | > 100 µM | > 100 µM | > 100 µM | > 100 µM
O=C1Nc2ccccc2/C1=C\c1c(Cl)nc2n1CCS2 | > 100 µM | > 100 µM | > 100 µM | 60.6 µM | 53.2 µM | 65.8 µM | 68.7 µM | 74.9 µM | 91 µM | 49.9 µM
CC1CC(C(=O)OC2OC(COC3OC(CO)C(OC4OC(C)C(O)C(O)C4O)C(O)C3O)C(O)C(O)C2O)C2CCC3(C)C(=CCC4(C)C3CCC3C(C)(CO)C(O)C(O)CC34C)C2C1C (stereo not given) | > 10 µM | 37.2 µM | > 100 µM | 53 µM | 34 µM | 33.3 µM | 60.4 µM | > 100 µM | 35 µM | > 100 µM
Cc1[nH]c(=O)nc(N(CCO)/N=C/c2ccc(Cl)cc2)c1C(=O)Nc1ccc(Cl)cc1 | > 100 µM | > 100 µM | > 100 µM | > 100 µM | > 100 µM | > 100 µM | > 100 µM | > 100 µM | > 100 µM | > 100 µM
NC(C(=O)OC(=O)c1ccccc1)C(=O)OC(=O)c1ccccc1 | > 100 µM | > 100 µM | > 100 µM | > 100 µM | > 100 µM | > 100 µM | > 100 µM |  | > 100 µM | > 100 µM
CC(=O)c1ccccc1NS(=O)(=O)c1ccc2nc(C)n(NS(=O)(=O)c3ccccc3C(C)=O)c(=O)c2c1 | > 100 µM | > 100 µM | > 100 µM | > 100 µM | > 100 µM | > 100 µM | > 100 µM | > 100 µM | > 100 µM | > 100 µM
CC#CCCCC1(C)CCCNC1=S (stereo not given) | > 10 µM |  | > 10 µM | > 10 µM | > 10 µM | > 10 µM | > 10 µM | > 10 µM | > 10 µM | > 10 µM
